Measured values taken from patent US8546389B2 (priority 2010, dated 2013).

Key:
1b (BK) NS5bΔ21 = 1b (BK) NS5bΔ21 (Hepatitis C virus genotype 1b (isolate BK) (HCV), UniProt P26663); test: HCV polymerase inhibition assay, genotype 1b; type: biochemical, HCV genotype 1b (BK); conditions: 1b (BK) NS5bΔ21, 33P-GTP incorporation; read-out: 1b polymerase IC50 (range class)
Protocol: HCV polymerase reactions were carried out using a modified method of Howe et al., Antimicrobial Agents and Chemotherapy 2004 48(12): 4813-4821. Reactions contained a final concentration of, 0.5% DMSO, 50 nM, 1b (BK) NS5bΔ21, 20 mM Tris-HCl pH 7.5, 5 mM MgCl2, 5 mM MnCl2, 3 mM DTT, 0.05% BSA, 0.2 U/μL RNasin, 10 μg/mL Poly(rC) template, GTP (at Km) and 0.05 μCi/μL ^33P-GTP in a total reaction volume of 50 μL. Compounds were tested in a three fold dilution series, for example starting from 50 μM. Reactions were initiated with the addition of GTP and terminated after 1 hour with 50 μL ice cold 0.2 M EDTA. Terminated reactions were transferred to DEAE 96-well filter plates, unincorporated nucleotides washed from the filters and 50 μL scintillation fluid added prior to reading on a scintillation counter. Similarly, a genotype 3a (VRL-69) NS5bΔ21 polymerase enzyme assay was conducted using essentially the same method.
The compound concentration that reduced ^33P-GTP incorporation by 50% (IC50) was calculated using non-linear regression.

[1] = test system: genotype 1b (Con 1) subgenomic replicon cell line; test: HCV replicon assay, genotype 1b (Renilla luciferase); type: cell-based, HCV genotype 1b (Con 1); conditions: Hepatitis C virus; genotype 1b replicon, 72 hours, luciferase; read-out: genotype 1b EC50 (range class)
Protocol: A genotype 1b (Con 1) subgenomic replicon cell line based on Blight et al., Science 2000 290: 1972-1974, modified to express a Renilla luciferase reporter gene was used to assess antiviral activity of test compounds. Cell cultures were maintained in a sub-confluent state in DMEM with glutamine, 10% heat-inactivated foetal bovine serum (FBS) and G418 (Geneticin®).
For assay, cells were seeded at a density of 7000 cells/well into 96 well tissue culture trays in culture media lacking G418. Compounds were tested in a three fold dilution series, for example starting from 50 uM. After 72 hours incubation at 37° C. and 5% CO2, Renilla luciferase activity was quantified via the Promega Renilla Luciferase or Renilla-Glo™ Luciferase Assay Systems (Promega corporation. The same method was employed for replicon assays using subgenomic genotype 1a and 2a replicon cell lines with a seeding cell density of 5000 cells/well for the 2a cell lines.
The compound concentration that reduced luciferase activity by 50% (EC50) was calculated using non-linear regression.

Chain of 1b (BK) NS5bΔ21 (P26663 2420-2989): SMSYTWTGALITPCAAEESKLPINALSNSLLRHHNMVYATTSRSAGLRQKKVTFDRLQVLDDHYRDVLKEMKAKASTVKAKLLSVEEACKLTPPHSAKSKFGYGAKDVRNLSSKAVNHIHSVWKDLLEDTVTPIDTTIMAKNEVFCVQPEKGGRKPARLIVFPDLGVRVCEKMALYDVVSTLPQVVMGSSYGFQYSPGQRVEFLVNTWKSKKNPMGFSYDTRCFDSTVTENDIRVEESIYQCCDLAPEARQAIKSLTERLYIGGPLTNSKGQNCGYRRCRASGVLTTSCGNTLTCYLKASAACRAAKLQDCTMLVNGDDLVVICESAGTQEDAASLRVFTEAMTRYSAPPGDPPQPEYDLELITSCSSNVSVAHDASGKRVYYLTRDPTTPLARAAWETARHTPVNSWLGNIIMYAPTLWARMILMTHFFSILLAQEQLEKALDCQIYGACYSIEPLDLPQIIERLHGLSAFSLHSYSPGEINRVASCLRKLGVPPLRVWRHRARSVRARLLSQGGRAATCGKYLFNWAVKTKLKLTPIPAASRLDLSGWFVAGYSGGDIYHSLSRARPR

Row | Structure (SMILES) | IC50 (1b (BK) NS5bΔ21) | EC50 [1]
1 | CCOC(=O)CCCN(c1cc2nn(-c3ccc(Br)cc3)c(C(=O)NC)c2cc1C1CC1)S(C)(=O)=O [Compound 88, Ethyl 4-{[2-(4-bromophenyl)-5-cyclopropyl-3-(methylcarbamoyl)-2H-indazol-6-yl](methylsulfonyl)amino}butanoate] | < 990 nM | < 990 nM
2 | CNC(=O)c1c2cc(C3CC3)c(N(CCCOC)S(C)(=O)=O)cc2nn1-c1ccc(Br)cc1 [Compound 213] | < 990 nM | < 990 nM
3 | CNC(=O)c1c2cc(C3CC3)c(N(CCCC(=O)O)S(C)(=O)=O)cc2nn1-c1ccc(Br)cc1 [Compound 89, 4-{[2-(4-bromophenyl)-5-cyclopropyl-3-(methylcarbamoyl)-2H-indazol-6-yl](methylsulfonyl)amino}butanoic acid] | < 990 nM | 10000 to 50000 nM
4 | CNC(=O)c1c2cc(C3CC3)c(N(CCC(F)(F)F)S(C)(=O)=O)cc2nn1-c1ccc(Br)cc1 [Compound 233] | < 990 nM | < 990 nM
5 | CNC(=O)c1c2cc(C3CC3)c(N(CCF)S(C)(=O)=O)cc2nn1-c1ccc(Cl)cc1 [Compound 247] | < 990 nM | < 990 nM
6 | CNC(=O)c1c2cc(C3CC3)c(N(CCCN3C(=O)c4ccccc4C3=O)S(C)(=O)=O)cc2nn1-c1ccc(Br)cc1 [Compound 169] | < 990 nM | < 990 nM
7 | CNC(=O)c1c2cc(C3CC3)c(N(CC3CCOC3)S(C)(=O)=O)cc2nn1-c1ccc(Cl)cc1 (centres unmarked) [Compound 252] | < 990 nM | < 990 nM
8 | CNC(=O)c1c2cc(C3CC3)c(N(CCCO)S(C)(=O)=O)cc2nn1-c1ccc(COC(C)C)cc1 [Compound 79, 5-Cyclopropyl-6-[(3-hydroxypropyl)(methylsulfonyl)amino]-N-methyl-2-{4-[(propan-2-yloxy)methyl]phenyl}-2H-indazole-3-carboxamide] | 1000 to 9990 nM | 1000 to 9990 nM
9 | CNC(=O)c1c2cc(C3CC3)c(N(CCCNC(=O)[C@H]3C[C@H]3C(=O)O)S(C)(=O)=O)cc2nn1-c1ccc(Br)cc1 [Compound 218] | < 990 nM | 1000 to 9990 nM
10 | CNC(=O)c1c2cc(C3CC3)c(N(CCCC(=O)NS(=O)(=O)C(F)(F)F)S(C)(=O)=O)cc2nn1-c1ccc(Cl)cc1 [Compound 217] | < 990 nM | 1000 to 9990 nM
11 | CNC(=O)c1c2cc(C3CC3)c(N(CCCO)S(C)(=O)=O)cc2nn1-c1ccc(C2CC2)cc1 [Compound 53, 5-cyclopropyl-2-(4-cyclopropylphenyl)-6-[(3-hydroxypropyl)(methylsulfonyl)amino]-N-methyl-2H-indazole-3-carboxamide] | 1000 to 9990 nM | < 990 nM
12 | CNC(=O)c1c2cc(C3CC3)c(N(CCCNC(=O)C(C)C)S(C)(=O)=O)cc2nn1-c1ccc(Cl)cc1 [Compound 242] | < 990 nM | < 990 nM
13 | CC=Cc1cc2c(C(=O)NC)n(-c3ccc(F)cc3)nc2cc1N(CC)S(C)(=O)=O [Compound 144] | 1000 to 9990 nM | 1000 to 9990 nM
14 | CNC(=O)c1c2cc(C3CC3)c(N(CCF)S(C)(=O)=O)cc2nn1-c1ccc(Br)cc1 [Compound 241] | < 990 nM | < 990 nM
15 | CNC(=O)c1c2cc(C3CC3)c(N(CC(CO)CO)S(C)(=O)=O)cc2nn1-c1ccc(Br)cc1 [Compound 203] | 10000 to 50000 nM | 10000 to 50000 nM
16 | CNC(=O)c1c2cc(C3CC3)c(N([C@H]3CCNC3)S(C)(=O)=O)cc2nn1-c1ccc(Br)cc1 (racemic) [Compound 195] | 1000 to 9990 nM | 10000 to 50000 nM
17 | CNC(=O)c1c2cc(C3CC3)c(N(CCCN3CCOCC3)S(C)(=O)=O)cc2nn1-c1ccc(Cl)cc1 [Compound 201] | < 990 nM | < 990 nM
18 | CNC(=O)c1c2cc(C3CC3)c(N(CCC(=O)NS(=O)(=O)c3ccc(F)cc3)S(C)(=O)=O)cc2nn1-c1ccc(Br)cc1 [Compound 154] | < 990 nM | 10000 to 50000 nM
19 | CNC(=O)c1c2cc(C3CC3)c(N(CCNC(C)=O)S(C)(=O)=O)cc2nn1-c1ccc(Br)cc1 [Compound 37] | 1000 to 9990 nM | 1000 to 9990 nM

Row | Structure (SMILES) | IC50 (1b (BK) NS5bΔ21) | EC50 [1]
20 | CCCN(c1cc2nn(-c3ccc(Oc4ccc(F)cc4)cc3)c(C(=O)NC)c2cc1C1CC1)S(C)(=O)=O [Compound 113] | < 990 nM | < 990 nM
21 | CNC(=O)c1c2cc(C3CC3)c(N(CCCC(C(=O)O)C(=O)O)S(C)(=O)=O)cc2nn1-c1ccc(Br)cc1 [Compound 224] | < 990 nM | 1000 to 9990 nM
22 | CNC(=O)c1c2cc(C3CC3)c(N(CCCNC(=O)[C@H]3C[C@H]3C(=O)OC)S(C)(=O)=O)cc2nn1-c1ccc(Br)cc1 [Compound 204] | < 990 nM | < 990 nM
23 | CCN(c1cc2nn(-c3ccc(F)cc3)c(C(=O)NC)c2cc1C)S(C)(=O)=O [Compound 139] | 1000 to 9990 nM | 10000 to 50000 nM
24 | CNC(=O)c1c2cc(C3CC3)c(N(CCC3CCOC3)S(C)(=O)=O)cc2nn1-c1ccc(Br)cc1 (centres unmarked) [Compound 256] | < 990 nM | < 990 nM
25 | CNC(=O)c1c2cc(C3CC3)c(N(CCCNC(=O)[C@H]3CC=CC[C@H]3C(=O)O)S(C)(=O)=O)cc2nn1-c1ccc(Br)cc1 [Compound 188] | < 990 nM | < 990 nM
26 | CNC(=O)c1c2cc(C3CC3)c(N(CCCNC(=O)c3cnoc3C)S(C)(=O)=O)cc2nn1-c1ccc(Br)cc1 [Compound 173] | < 990 nM | < 990 nM
27 | CNC(=O)c1c2cc(C3CC3)c(N(CCCC(=O)O)S(C)(=O)=O)cc2nn1-c1ccc(C)cc1 [Compound 229] | < 990 nM | 10000 to 50000 nM
28 | CCN(c1cc2nn(-c3ccc(Br)cc3)c(C(=O)NC)c2cc1C1CC1)S(=O)(=O)C(F)(F)F [Compound 258] | 1000 to 9990 nM | 1000 to 9990 nM
29 | CNC(=O)c1c2cc(C3CC3)c(N(CCCNC(=O)c3ccnnc3)S(C)(=O)=O)cc2nn1-c1ccc(Br)cc1 [Compound 178] | < 990 nM | 1000 to 9990 nM
30 | CCN(c1cc2nn(-c3ccc(Cl)c(F)c3)c(C(=O)NC)c2cc1C1CC1)S(C)(=O)=O [Compound 239] | < 990 nM | < 990 nM
31 | CNC(=O)c1c2cc(C3CC3)c(N(CCCNC(=O)[C@H]3CCCC[C@H]3C(=O)O)S(C)(=O)=O)cc2nn1-c1ccc(Br)cc1 [Compound 251] | < 990 nM | < 990 nM
32 | CNC(=O)c1c2cc(C3CC3)c(N(CCCO)S(C)(=O)=O)cc2nn1-c1ccc(C)c(F)c1 [Compound 206] | < 990 nM | < 990 nM
33 | CNC(=O)c1c2cc(C3CC3)c(N(CCCNC(=O)[C@H]3CCCC[C@@H]3C(=O)O)S(C)(=O)=O)cc2nn1-c1ccc(Br)cc1 [Compound 187] | < 990 nM | 1000 to 9990 nM
34 | CNC(=O)c1c2cc(C3CC3)c(N(CC3CC3)S(C)(=O)=O)cc2nn1-c1ccc(Cl)cc1 [Compound 246] | < 990 nM | < 990 nM
35 | CNC(=O)c1c2cc(C3CC3)c(N(CCCN3CCNC3=O)S(C)(=O)=O)cc2nn1-c1ccc(Br)cc1 [Compound 70, 2-(4-Bromophenyl)-5-cyclopropyl-N-methyl-6-{(methylsulfonyl)[3-(2-oxoimidazolidin-1-yl)propyl]amino}-2H-indazole-3-carboxamide] | < 990 nM | 1000 to 9990 nM
36 | CCN(c1cc2nn(-c3ccc(Br)cc3)c(C(=O)NC)c2cc1C1CC1)S(C)(=O)=O [Compound 20] | < 990 nM | < 990 nM
37 | CNC(=O)c1c2cc(C3CC3)c(N(CCNC(=O)Cc3nn[nH]n3)S(C)(=O)=O)cc2nn1-c1ccc(Br)cc1 [Compound 8, 2-(4-bromophenyl)-5-cyclopropyl-N-methyl-6-[(methylsulfonyl){2-[(2H-tetrazol-5-ylacetyl)amino]ethyl}amino]-2H-indazole-3-carboxamide] | < 990 nM | 10000 to 50000 nM
